As usually defined, the MIC is the lowest concentration that inhibits growth of the organism.

Molecules are shown by their SMILES. ≈ marks a conversion by molar mass, not a printed value. Where only a bound is given, the exact number is not on record here.

Common to all, as to assay: MIC, agar dilution (NCCLS M11-A5), anaerobic
Background: Agar dilution tests growth on a series of plates holding different concentrations.

The subject of assay [1] is sensitive P. acnes isolates (Propionibacterium acnes 6523, ATCC 6919, clinical isolate, I and II). It is filed as cell-based. The settings on record: Cutibacterium acnes, sensitive P. acnes isolates: 6523, ATCC 6919, clinical isolate, 48 hours anaerobic.
Assay [2] concerns resistant P. acnes (NDDR I and II) isolates. Format: cell-based, Propionibacterium acnes. The settings on record: Cutibacterium acnes.
The subject of the next assay is All the P. acnes isolate. Format: cell-based, Propionibacterium acnes.

In the case of `CC[C@H]1OC(=O)[C@H](C)[C@@H](O[C@H]2C[C@@](C)(OC)[C@@H](O)[C@H](C)O2)[C@H](C)[C@@H](O[C@@H]2O[C@H](C)C[C@H](N(C)C)[C@H]2O)[C@](C)(O)C[C@@H](C)C(=O)[C@H](C)[C@@H](O)[C@]1(C)O` [Erythromycin], the minimal inhibitory concentration (MIC) in assay [1] is 0.06 to 0.5 µg/mL (≈ 0.0818 to 0.681 µM); in assay [2], greater than 16 µg/mL. In assay [2], `CC[C@H]1OC(=O)[C@H](C)C(=O)[C@H](C)[C@@H](O[C@@H]2O[C@H](C)C[C@H](N(C)C)[C@H]2O)[C@](C)(OC)C[C@@H](C)C(=O)[C@H](C)[C@H]2N(CCCCn3cnc(-c4cccnc4)c3)C(=O)O[C@]12C` [Telithromycin] registered an MIC of 2 µg/mL (≈ 2.46 µM). In the case of `Cc1ncc([N+](=O)[O-])n1CCO` [metronidazole], the “susceptibility of P. acnes isolates (in words)” value in the assay on All the P. acnes isolate was “resistance”. Turning to `CCC[C@@H]1C[C@@H](C(=O)N[C@@H]([C@H]2O[C@H](SC)[C@H](O)[C@@H](O)[C@H]2O)[C@H](C)Cl)N(C)C1` [Clindamycin], the minimum inhibitory concentration (MIC) in assay [1] stood at 0.25 µg/mL (≈ 0.588 µM); in assay [2] it was 16 µg/mL (≈ 37.6 µM). For `CC[C@H]1OC(=O)[C@H](C)[C@@H](O[C@H]2C[C@@](C)(OC)[C@@H](O)[C@H](C)O2)[C@H](C)[C@@H](O[C@@H]2O[C@H](C)C[C@H](N(C)C)[C@H]2O)[C@](C)(O)C[C@@H](C)CN(C)[C@H](C)[C@@H](O)[C@]1(C)O` [Azithromycin], in that order: 0.06 to 0.5 µg/mL (≈ 0.0801 to 0.668 µM) and greater than 16 µg/mL. For `CC[C@H]1OC(=O)[C@H](C)[C@@H](O[C@H]2C[C@@](C)(OC)[C@@H](O)[C@H](C)O2)[C@H](C)[C@@H](O[C@@H]2O[C@H](C)C[C@H](N(C)C)[C@H]2O)[C@](C)(OC)C[C@@H](C)C(=O)[C@H](C)[C@@H](O)[C@]1(C)O` [Clarithromycin], in that order: 0.06 to 0.5 µg/mL (≈ 0.0802 to 0.668 µM) and greater than 16 µg/mL.

(Values after patent US20090075916A1, “Use of Macrolide Derivatives for Treating Acne” (priority 2005, published 2009).)
